Where only a bound is given, the exact number is not on record here.

The test system of one experiment is HCT116-MTAP-KO. The experiment in a line: Cell killing in HCT116 isogenic pair (Cell Titer-Glo viability), MTAP knock-out cells. The format is cell-based, human. Particulars: Homo sapiens, HCT-116, 144 h, 6 days incubation, 0-10 μM, * = more than 50% viability inhibition at tested concentration without a full curve. A digest of the protocol: (§1)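 HCT116 MTAP-knockout or mock-knockout (MTAP wildtype) cells in RPMI 1640 with 10% FBS were seeded overnight, then exposed to test compound at 0–10 μM final for 6 days at 37° C. Viability was measured by CellTiter-Glo luminescence and IC50 was fitted.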

A further experiment relates to HCT116-mock-RNA-KO. The experiment in a line: Cell killing in HCT116 isogenic pair (Cell Titer-Glo viability), mock knock-out cells with MTAP wildtype genotype. The format is cell-based, human. The settings on record: Homo sapiens, HCT-116, 144 h, 6 days incubation, 0-10 μM. The method, boiled down:
as §1

For `CCN(C(=O)c1cc2nc(N)c3c(c2[nH]1)CO[C@@H]3C)[C@H](C)c1ncc(C(F)(F)F)cc1F` [Example 130, (R)-5-amino-N-ethyl-N—((R)-1-(3-fluoro-5-(trifluoromethyl)pyridin-2-yl)ethyl)-6-methyl-6,8-dihydro-1H-furo[3,4-d]pyrrolo[3,2-b]pyridine-2-carboxamide], the IC50 in the experiment with HCT116-MTAP-KO is 8.5 nM; with HCT116-mock-RNA-KO it was 1090 nM.
On to `C[C@H](c1cnccn1)N(Cc1ncc(Br)cc1F)C(=O)c1cc2nc(N)c3c(c2[nH]1)COC3` [Example 62, (R)-5-amino-N-((5-bromo-3-fluoropyridin-2-yl)methyl)-N-(1-(pyrazin-2-yl)ethyl)-6,8-dihydro-1H-furo[3,4-d]pyrrolo[3,2-b]pyridine-2-carboxamide], for which the IC50 with HCT116-MTAP-KO came to 17 nM; with HCT116-mock-RNA-KO it was 2080 nM.
For `C[C@H]1OC[C@H](N(C)C(=O)c2cc3nc(N)c4c(c3[nH]2)COC4)c2ccc(C(F)(F)F)cc21` [Example 57, 5-amino-N-methyl-N-((1R,4R)-1-methyl-7-(trifluoromethyl)isochroman-4-yl)-6,8-dihydro-1H-furo[3,4-d]pyrrolo[3,2-b]pyridine-2-carboxamide] the same measures were 958 nM and > 10000 nM.
Regarding `N#Cc1cc(F)c(CN(C(=O)c2cc3nc(N)c4c(c3[nH]2)COC4)[C@@H]2CCCc3cccnc32)c(F)c1` [Example 21, (R)-5-amino-N-(4-cyano-2,6-difluorobenzyl)-N-(5,6,7,8-tetrahydroquinolin-8-yl)-6,8-dihydro-1H-furo[3,4-d]pyrrolo[3,2-b]pyridine-2-carboxamide], the IC50 is < 1.5 nM in the experiment on HCT116-MTAP-KO and 7 nM with HCT116-mock-RNA-KO.
As for `C[C@@H](c1ncc(C2CC2)cc1F)N(C)C(=O)c1cc2nc(N)c3c(c2[nH]1)COC3` [Example 118, (S)-5-amino-N-(1-(5-cyclopropyl-3-fluoropyridin-2-yl)ethyl)-N-methyl-6,8-dihydro-1H-furo[3,4-d]pyrrolo[3,2-b]pyridine-2-carboxamide], the half-inhibitory concentration (IC50) in the experiment on HCT116-MTAP-KO is 2250 nM; in the experiment on HCT116-mock-RNA-KO it was > 10000 nM.
Turning to `C[C@H](c1ccc(C(F)(F)F)cc1F)N(C)C(=O)c1cc2nc(N)c3c(c2[nH]1)COC3` [Example 145, (R)-5-amino-N-(1-(2-fluoro-4-(trifluoromethyl)phenyl)ethyl)-N-methyl-6,8-dihydro-1H-furo[3,4-d]pyrrolo[3,2-b]pyridine-2-carboxamide], the IC50 in the experiment with HCT116-MTAP-KO came out at 26 nM; with HCT116-mock-RNA-KO, 3430 nM.
`COC[C@@H](C)N(Cc1ncc(C2CC2)cc1F)C(=O)c1cc2nc(N)c3c(c2[nH]1)COC3` [Example 56, (R)-5-amino-N-((5-cyclopropyl-3-fluoropyridin-2-yl)methyl)-N-(1-methoxypropan-2-yl)-6,8-dihydro-1H-furo[3,4-d]pyrrolo[3,2-b]pyridine-2-carboxamide]: the concentration for half-maximal inhibition (IC50) in the experiment on HCT116-MTAP-KO worked out at 5 nM; in the experiment on HCT116-mock-RNA-KO, 146 nM.
For the molecule `CCN(C(=O)c1cc2nc(N)c3c(c2[nH]1)COC3)[C@H]1COCc2cc(Cl)ccc21` [Example 74, (R)-5-amino-N-(7-chloroisochroman-4-yl)-N-ethyl-6,8-dihydro-1H-furo[3,4-d]pyrrolo[3,2-b]pyridine-2-carboxamide], the IC50 in the experiment on HCT116-MTAP-KO was 1070 nM; in the experiment with HCT116-mock-RNA-KO, > 10000 nM.
Take `C[C@@H](c1ccc(C(F)(F)F)cc1F)N(C)C(=O)c1cc2nc(N)c3c(c2[nH]1)COC3` [Example 146, (S)-5-amino-N-(1-(2-fluoro-4-(trifluoromethyl)phenyl)ethyl)-N-methyl-6,8-dihydro-1H-furo[3,4-d]pyrrolo[3,2-b]pyridine-2-carboxamide]: the IC50 in the experiment on HCT116-MTAP-KO is 316 nM; in the experiment with HCT116-mock-RNA-KO it was > 10000 nM.
Turning to `C[C@H]1OCc2c1c(N)nc1cc(C(=O)N(C)[C@@H]3COCc4cc(C(F)(F)F)ccc43)[nH]c21` [Example 68, (R)-5-amino-N,6-dimethyl-N—((S)-7-(trifluoromethyl)isochroman-4-yl)-6,8-dihydro-1H-furo[3,4-d]pyrrolo[3,2-b]pyridine-2-carboxamide], the results for the IC50 in the experiment on HCT116-MTAP-KO and in the experiment on HCT116-mock-RNA-KO were 9 nM and 1690 nM, respectively.
Regarding `C[C@H](c1ncc(C2CC2)cc1F)N(C)C(=O)c1cc2nc(N)c3c(c2[nH]1)COC3` [Example 119, (R)-5-amino-N-(1-(5-cyclopropyl-3-fluoropyridin-2-yl)ethyl)-N-methyl-6,8-dihydro-1H-furo[3,4-d]pyrrolo[3,2-b]pyridine-2-carboxamide], the IC50 in the experiment with HCT116-MTAP-KO came out at 9.8 nM; in the experiment on HCT116-mock-RNA-KO, 1590 nM.
With `Nc1nc2cc(C(=O)N(Cc3ccc(-c4c(F)cccc4F)cc3F)[C@@H]3CCCc4cccnc43)[nH]c2c2c1COC2` [Example 6, (R)-5-amino-N-(5,6,7,8-tetrahydroquinolin-8-yl)-N-((2′,3,6′-trifluoro-[1,1′-biphenyl]-4-yl)methyl)-6,8-dihydro-1H-furo[3,4-d]pyrrolo[3,2-b]pyridine-2-carboxamide], the IC50 in the experiment on HCT116-MTAP-KO worked out at 11 nM; in the experiment with HCT116-mock-RNA-KO it was 40 nM.

These data come from patent US20240368177A1, “5-AMINO-6,8-DIHYDRO-1H-FURO[3,4-d]PYRROLO[3,2-b]PYRIDINE-2-CARBOXAMIDE DERIVATIVES AS MTA-COOPERATIVE INHIBITORS OF PRMT5” (BeiGene Switzerland GmbH, priority 2023, published 2024).
